Results as given in patent US20090156477A1, “Compositions and Methods for Regulating Inflammatory Responses” (Massachusetts Institute of Technology, priority 2005, published 2009).

B1: FGF7: Recombinant human FGF7 from Sigma (protein, UniProt P21781 32-194, looked up)
Fibroblast growth factor 7: CNDMTPEQMATNVNCSSPERHTRSYDYMEGGDIRVRRLFCRTQWYLRIDKRGKVKGTQEMKNNYNIMEIRTVAVGIVAIKGVESEFYLAMNKEGKLYAKKECNEDCNFKELILENHYNTYASAKWTHNGGEMFVALNQKGIPVRGKKTKKEQKTAHFLPMAIT

Experiments:
Assay type in all cases: cell-based, human
[1] = tested on: Fz1; assay: RT-PCR expression in Caco-2 cells after FGF treatment: Fz1; conditions: normalized to PBS treatment, defined as 1.0
Description: (§1) Five μg of total RNA was isolated from Caco-2 cells using Trizol reagent (Life Tech, Rockville, Md.) followed by reverse transcription with random hexamers. Specific oligomers were designed based on published sequences in order to detect the expression of specific human Wnt, Fz and syndecan isoforms. Sequences of primer pairs were as follows: Wnt-1: 5′-CACGACCTCGTCTACTTCGAC-3′ (SEQ ID NO: 17) and 5′-ACAGACACTCGTGCAGTACGC-3′ (SEQ ID NO: 18); Wnt-2: 5′-CATGGTGGTACATGAGAGCTAC-3′ (SEQ ID NO: 19) and 5′-GGCAAATACAACTCCAGCTGAG-3′ (SEQ ID NO: 20); Wnt-3: 5′-GAGAGCCTCCCCGTCCACAG-3′ (SEQ ID NO: 21) and 5′-CTGCCAGGAGTGTATTCGCATC-3′ (SEQ ID NO: 22); Wnt-3a: 5′-CAGGAACTACGTGGAGATCATG-3′ (SEQ ID NO: 23) and 5′-CCATCCCACCAAACTCGATGTC-3′ (SEQ ID NO: 24); Fz-1: 5′-GAACTTTCCTCCAACTTCATGGC-3′ (SEQ ID NO: 25) and 5′-CATTTCCATTTTACAGACCGG-3′ (SEQ ID NO: 26); Fz-2: 5′-GGTGAGCCAGCACTGCAAGAG-3′ (SEQ ID NO: 27) and 5′-CCTAAAAGTGAAATGGTTTCGATCG-3′ (SEQ ID NO: 28); Fz-10: 5′-ACACGTCCAACGCCAGCATG-3′ (SEQ ID NO: 29) and 5′-ACGAGTCATGTTGTAGCCGATG-3′ (SEQ ID NO: 30); and Syndecan-1/Sdc-1/CD138: 5′-CTTCACACTCCCCACACAGA-3′ (SEQ ID NO: 31) and 5′-TCCTGTTTGGTGGGCTTCTG-3′ (SEQ ID NO: 32). To control for total cell […], RT-PCR was also performed on β-actin using the primers 5′-GCCAGCTCACCATGGATGATGATAT-3′ (SEQ ID NO: 33) and 5′-GCTTGCTGATCCACATCTGCTGGAA-3′ (SEQ ID NO: 34). PCR was performed using the Advantage-GC cDNA kit from Clontech as per manufacturer's instructions (Palo Alto, Calif.).

[2] = tested on: Sdc-1; assay: RT-PCR expression in Caco-2 cells after FGF treatment: Sdc-1; conditions: normalized to PBS treatment, defined as 1.0
Description: as §1

[3] = tested on: β-catenin; assay: Immunohistochemistry for β-catenin in Caco-2 cells; conditions: compared to PBS treatment
Description: (§2) Caco-2 cells were grown to just prior to confluency on collagen IV coated glass slides. Cells were treated with PBS, FGF1, FGF2 and FGF7, and were incubated at 37° C. in a 5% CO2 humidified incubator for 1 hour, 4 hours, 24 hours or 48 hours, as noted. Cells were washed with PBS, fixed with 3.7% formalin for 10 minutes and washed again with PBS. Cells were treated with 0.1% Triton x-100 for 5 minutes to extract lipids. Cells were washed with PBS and preincubated with PBS supplemented with 1% bovine serum albumin. Primary antibodies were added for 4 hours at room temperature, and cells were washed with PBS. Primary antibodies used were as follows: rabbit anti-human ZO-1 (1:160; Zymed Laboratories, San Francisco, Calif.); mouse anti-human syndecan-1 (1:300; Santa Cruz Biotechnology); goat anti-human Fz-1 (1:125; Santa Cruz Biotechnology); rabbit anti-human caveolin-1 (1:250; Santa Cruz Biotechnology); goat anti-human glypican-1 (1:100; Santa Cruz Biotechnology); mouse anti-human E-cadherin (1:250; Zymed Laboratories); rabbit anti-human β-catenin (1:125; Cell Signaling Technology, Beverly, Mass.); and rabbit anti-human phospho-β-catenin (Ser33/37/Thr41; 1:125; Cell Signaling Technology, Beverly, Mass.).
Cells were then treated with secondary antibodies, Texas Red-labeled phalloidin (Molecular Probes, Eugene, Oreg.) or FLAER-FL1 (1:400; Protox Biotech, Victoria, BC, Canada) as appropriate for 1 hour in the dark at room temperature. […]
Cells, except those stained with phalloidin, were washed with PBS and stained with diamidino-2-phenylindole (DAPI) for 5 minutes at room temperature (Molecular Probes). […] Cells were examined by confocal microscopy (ZO-1 and phalloidin only), or by fluorescence microscopy. A Nikon HB10101AF fluorescence microscope was used and images were captured at room temperature using a Hitachi HVC20 camera and Scion image acquisition software. […]

[4] = tested on: Wnt3; assay: RT-PCR expression in Caco-2 cells after FGF treatment: Wnt3; conditions: normalized to PBS treatment, defined as 1.0
Description: as §1

[5] = tested on: Wnt1; assay: RT-PCR expression in Caco-2 cells after FGF treatment: Wnt1; conditions: normalized to PBS treatment, defined as 1.0
Description: as §1

[6] = tested on: Fz2; assay: RT-PCR expression in Caco-2 cells after FGF treatment: Fz2; conditions: normalized to PBS treatment, defined as 1.0
Description: as §1

[7] = tested on: syndecan-1; assay: Immunohistochemistry for syndecan-1 in Caco-2 cells; conditions: for syndecan-1 localization, one hour after treatment: 1 hour; for syndecan-1 distribution after 24 hours: compared to FGF1 treated cells
Description: as §2
Cells were then treated with secondary antibodies, Texas Red-labeled phalloidin (Molecular Probes, Eugene, Oreg.) or FLAER-FL1 (1:400; Protox Biotech, Victoria, BC, Canada) as appropriate for 1 hour in the dark at room temperature. Secondary antibodies used were as follows: FITC-labeled chicken anti-rabbit (for ZO-1; 1:100; Molecular Probes, Eugene, Oreg.); Texas Red-labeled goat-anti mouse (for syndecan-1; 1:400; Molecular Probes); FITC-labeled donkey anti-mouse (for syndecan-1; 1:400; Molecular Probes, Eugene, Oreg.); FITC-labeled rabbit anti-mouse (for syndecan-1 and E-cadherin; 1:500; Molecular Probes, Eugene, Oreg.); Texas Red-labeled rabbit anti-goat (for Fz-1; 1:200; Jackson ImmunoResearch Laboratories, West Grove, Pa.); Texas Red-labeled goat anti-rabbit (for caveolin-1, β-catenin and phospho-β-catenin; 1:500; Molecular Probes); and Texas Red-labeled donkey anti-goat (for glypican-1; 1:80; Research Diagnostics, Flanders, N.J.).
Cells, except those stained with phalloidin, were washed with PBS and stained with diamidino-2-phenylindole (DAPI) for 5 minutes at room temperature (Molecular Probes). Controls of no antibody, primary antibody only, and secondary antibody only were performed. Cells were examined by confocal microscopy (ZO-1 and phalloidin only), or by fluorescence microscopy. A Nikon HB10101AF fluorescence microscope was used and images were captured at room temperature using a Hitachi HVC20 camera and Scion image acquisition software. Images were processed using Adobe Photoshop 7.0 and Adobe Illustrator 10.0.

Molecule	Fz1 expression (intensity of RT-PCR images) [1]	Sdc-1 expression (intensity of RT-PCR images) [2]	cytoplasmic β-catenin after 24 hours [3]	Wnt3 expression (intensity of RT-PCR images) [4]	Wnt1 expression (intensity of RT-PCR images) [5]	Fz2 expression (intensity of RT-PCR images) [6]	syndecan-1 localization, one hour after treatment [7]	syndecan-1 distribution after 24 hours [7]
FGF1: Recombinant human FGF1 from Amgen	1.5	1.3	potentially reduced levels of cytoplasmic β-catenin	1.3	2.2	0.7	seen to a lesser amount	
FGF2: Recombinant human FGF2, produced as described	1.1	0.9	induced markedly increased cytoplasmic β-catenin	1.3	2.7	1.7	primarily localized around the nucleus	moderately enhanced cytoplasmic and membrane-associated distribution of syndecan-1
B1	2.4	0.6	induced markedly increased cytoplasmic β-catenin	1.2	5.1	1.6	primarily localized around the nucleus	moderately enhanced cytoplasmic and membrane-associated distribution of syndecan-1
